# Test results published in patent publication US11331318B2, “Arterial oxygen saturation degree improver” (FURUKAWA RESEARCH OFFICE CO., LTD., priority 2017, dated 2022).
# Legend:
# [1] = tested on: human subjects in normobaric hypoxic room (oxygen concentration 12.4 to 12.7%); test: SpO2 and heart rate in a normobaric hypoxic room before and after administration of orotic acid; assay type: in vivo
# Protocol: A person (subject A) entered a normobaric hypoxic room (oxygen concentration: 12.4 to 12.7%, equivalent to that at an altitude of about 4000 m, 23° C.) of Miura Dolphins and was then administered with 400 mg of orotic acid by repeating twice a method (sublingual administration) in which a mixture (400 mg) of free form orotic acid (manufactured by Kyowa Hakko Bio Co., Ltd., 200 mg) and L-carnitine (manufactured by Lonza Japan Ltd., 200 mg) wrapped in wafer paper was placed under the tongue and allowed to stay in the mouth for at least 30 seconds, and the SpO2 and heart rate were measured using a pulse oximeter PULSOX-300i (manufactured by Konica Minolta, Inc.). Incidentally, in this example, carnitine was used for enhancing the solubility of orotic acid in water (absorbability into oral mucosa (see Japanese unexamined Patent Application Publication No. 2015-43743). Subject A was required not to consciously change their breathing after entering the room. Three subjects ([subject A: the same subject as that Example 1], [subject B], and [subject C]) were subjected to a test according to the method described in [Test method 1] above. Subject A was subjected to examination of swallowing (oral administration) two tablets each containing 200 mg of free form orotic acid monohydrate (manufactured by Kyowa Hakko Bio Co., Ltd.) (400 mg of orotic acid in total) for comparison with sublingual administration. In this test, the oxygen concentration in the room was stable within a range of 12.4% to 12.7% throughout the test period.
# [2] = tested on: healthy women performing bike exercise; test: Change in energy consumption after bike exercise; assay type: in vivo, human; settings: one tablet (200 mg) before exercise
# Protocol: Six 22-year-old healthy women were divided into three groups of two. All the women were fasted for 24 hours (allowed only to drink water or tea), and two women of one group ingested one tablet of the orotic acid-containing throat candy (OA mouth-dissolving tablet), two women of another group ingested one tablet of the free form orotic acid monohydrate-containing tablets manufactured in Example 2 (OA tablet), and two women of the remaining group ingested one tablet of the placebo throat candy (non-ingestion), and the women performed bike exercise (exercise intensity: […]) for 30 minutes. Changes in energy consumption and changes in plasma uric acid level were measured at 2 hours, 3 hours, and 4 hours after completion of the exercise by the following measuring method. Exhalation was analyzed at immediately after completion of exercise and at 2 hours, 3 hours, and 4 hours after completion of exercise with AERO MONITOR AE 300S manufactured by Minato Medical Science Co., Ltd. Oxygen uptake volume and carbon dioxide production volume were measured, and the energy consumption (kcal/day) was determined by the following expression (1) to calculate the change in energy consumption. Energy consumption (kcal/day)=(3.9×oxygen uptake volume)+(1.1×carbon dioxide production volume) (1) Method for Measuring Change in Plasma Uric Acid Level
# [3] = tested on: healthy women performing bike exercise; test: Change in plasma uric acid level after bike exercise (uricase-POD method); assay type: in vivo, human; settings: non-ingestion group increase of 0.2 mg/dL
# Protocol: Six 22-year-old healthy women were divided into three groups of two. All the women were fasted for 24 hours (allowed only to drink water or tea), and two women of one group ingested one tablet of the orotic acid-containing throat candy (OA mouth-dissolving tablet), two women of another group ingested one tablet of the free form orotic acid monohydrate-containing tablets manufactured in Example 2 (OA tablet), and two women of the remaining group ingested one tablet of the placebo throat candy (non-ingestion), and the women performed bike exercise (exercise intensity: […]) for 30 minutes. Changes in energy consumption and changes in plasma uric acid level were measured at 2 hours, 3 hours, and 4 hours after completion of the exercise by the following measuring method. The uric acid concentrations (mg/dL) at immediately after completion of exercise and at 4 hours after completion of exercise were determined by allowing peroxidase (POD) to act on hydrogen peroxide (H2O2), generated by oxidative decomposition of uric acid in a sample by the action of uricase, in the presence of 4-aminoantipyrine (4-AA) and a color former for oxidative condensation to generate a quinone dye (uricase-POD method). The resulting quinone dye is colorimetrically measured to calculate the change in plasma uric acid level.
# [4] = tested on: person suspected of having sleep apnea syndrome (SAS); test: SpO2 at apnea or hypopnea state in a person suspected of having sleep apnea syndrome; assay type: in vivo, human; settings: one tablet of orotic acid-containing throat candy at bedtime, oral absorption
# Source text: A person suspected of having sleep apnea syndrome (SAS) ingested one tablet of the placebo throat candy manufactured in Example 3 at bedtime, and the maximum time of sleep apnea (a state in which breathing stops for 10 seconds of more) or hypopnea (a state in which ventilation by breathing falls to 50% or less for 10 seconds or more), which are detected with testing equipment for sleep apnea syndrome lent from a medical corporation Koshikai Ginza Yasue Clinic, and the SpO2 level at that time was measured two nights by the method in Example 1 (these levels are written by numerical numbers in the diagnostic results analyzed by the clinic software). The women then ingested one tablet of the orotic acid-containing throat candy manufactured in Example 3 at bedtime, and the maximum time of sleep apnea or hypopnea state and the SpO2 level at that time was measured by the same method as above two nights. In FIG. 6, the results in ingestion of one tablet of placebo throat candy are shown by round-shaped plots, and the results in ingestion of one tablet of orotic acid-containing throat candy are shown by diamond-shaped plots.
# [5] = tested on: ddY male mice; test: Oxygen consumption during non-exercise in mice (reference example 1); assay type: in vivo, mouse; settings: 5 times a week for 4 weeks
# Protocol: In order to verify whether orotic acid has an effect of decreasing the oxygen consumption during non-exercise or not, the following test was performed. Thirty-two ddY male mice (6-week old) bred in a thermostatic animal chamber of 24±2° C. for one week or more under a light-dark cycle of 12 hours (lighting from 8:00 to 20:00) were prepared. These mice were divided into two groups. Each mouse in one group (control group: CTL group) was administered with 0.5 mass % carboxymethyl cellulose solution (CMC solution) in an amount of 10 mL per 1 kg of mouse body weight. Each mouse in the other group (orotic acid administration group: OA group) was administered with orotic acid (50 mg/mL) suspended in 0.5 mass % CMC solution in an amount of 10 mL per 1 kg of mouse body weight. These administrations were performed 5 times a week for successive 4 weeks (20 times in total) for each mouse. Each mouse was transferred to a metabolism measurement chamber at 19:00 on the day of last administration to start fasting, and the oxygen consumption (VO2 [mL/min]) and carbon dioxide production volume (VCO2 [mL/min]) during the dark period from 20:00 to 8:00 on the following day were measured. […] In addition, the respiratory quotient (RER) of each mouse was calculated as a value obtained by dividing the carbon dioxide production volume by the oxygen consumption.
# [6] = tested on: ddY male mice; test: Oxygen consumption during forced treadmill exercise in mice (reference example 2); assay type: in vivo, mouse; settings: 5 times a week for 3 weeks
# Protocol: In order to verify whether orotic acid has an effect of decreasing the oxygen consumption during exercise or not, the following test was performed. Twenty-four ddY male mice (6-week old) bred in a thermostatic animal chamber of 24±2° C. for one week or more under a light-dark cycle of 12 hours (lighting from 8:00 to 20:00) were prepared. These mice were divided into two groups. Each mouse in one group, CTL group, was administered with 0.5 mass % CMC solution in an amount of 10 mL per 1 kg of mouse body weight. Each mouse in the other group, OA group, was administered with 50 mg/mL of orotic acid suspended in 0.5 mass % CMC solution in an amount of 10 mL per 1 kg of mouse body weight. These administrations were performed 5 times a week for successive 3 weeks (15 times in total) for each mouse. Fasting of each mouse was started at 17:00 on the day of last administration. The mice were subjected to forced exercise using a mouse treadmill from 10:00 on the following day, and the oxygen consumption and the carbon dioxide production volume during exercise were measured. Incidentally, the forced exercise was performed for 30 minutes in total at a speed of 15 m/min for first 5 minutes, at a speed of 20 m/min for the following 5 minutes, and then at a speed of 25 m/min for 20 minutes. […] In addition, the respiratory quotient of each mouse was calculated as a value obtained by dividing the carbon dioxide production volume by the oxygen consumption.
# [7] = tested on: male ddY mice; test: Limit swimming time in mice (reference example 3); assay type: in vivo, mouse
# Protocol: The endurance-enhancing effect was verified using orotic acid as a test substance. Seven-week old male ddY mice were purchased from Japan SLC, Inc. and were each acclimatized for 7 days and then forced to swim with a weight on the tail. When a mouse could not come up to the water surface and stayed under the surface of the water for 5 seconds, the time thereof was measured as the limit swimming time. The mice were divided into groups, such that there was no difference in limit swimming time between the groups, as follows: control group (CTL group, n=10), orotic acid 250 mg/kg administration group (OA 250 mg/kg group, n=10), and orotic acid 500 mg/kg administration group (OA 500 mg/kg group, n=10). The mice in each group were bred using roughage (CE-2), and the mice in OA 250 mg/kg group and OA 500 mg/kg group were orally administered with 250 mg/kg of orotic acid and 500 mg/kg of orotic acid, respectively, five times a week. After the grouping, the limit swimming time in each group was measured once a week while being bred for 3 weeks.
structure (smiles),measurement,setting,value
O=C(O)c1cc(=O)[nH]c(=O)[nH]1 [orotic acid],heart rate,"[1]; subject A, 400 mg oral",did not have a considerable irregularity in heart rate
same,sense of discomfort felt to be caused by hypoxia,"[1]; subject A, 400 mg oral",merely slightly improved
same,recovery of SpO2 level after oral administration,"[1]; subject A, 400 mg oral (two swallowed tablets of free form orotic acid monohydrate), SpO2 decreased to 84%",hardly recovered
same,SpO2 level about 30 minutes after sublingual administration,"[1]; subject A, 400 mg orotic acid sublingual (mixed with L-carnitine, in wafer paper), SpO2 83% to 84% before administration",88%
same,SpO2 level stably maintained until leaving the room,"[1]; subject A, 400 mg sublingual",about 88%
same,heart rate,"[1]; subject A, 400 mg sublingual",no considerable irregularity in heart rate
same,sense of discomfort felt to be caused by hypoxia,"[1]; subject A, 400 mg sublingual",disappeared soon after ingestion of orotic acid
same,time for which the increased SpO2 level was stably maintained,"[1]; subject A, 400 mg sublingual, until leaving the room",at least 5 hours
same,heart rate before and after administration,"[1]; subject B, 400 mg sublingual",hardly changed
same,symptoms such as light sleepiness and reduced concentration,"[1]; subject B, 400 mg sublingual",cancelled
same,SpO2 level recovered after sublingual administration,"[1]; subject B, 400 mg sublingual, SpO2 82% before, increased at about 30 minutes after administration",86%
same,"symptoms of altitude sickness, such as headache and bad feeling","[1]; subject C, 200 mg sublingual",disappeared
same,SpO2 level recovered after sublingual administration,"[1]; subject C, 200 mg sublingual at 2 hours and 40 minutes after entering the room",higher than 80%
same,recovery of SpO2 level,"[1]; subject C, 400 mg swallowed before dissolution of wafer paper (same as oral administration), SpO2 decreased to 70%",no recovery in the SpO2 level was observed
same,"decrease in energy consumption at 2, 3 and 4 hours after bike exercise compared to immediately after exercise",[2]; oral absorption as throat candy,remarkable compared to that when orotic acid was ingested by oral administration
same,"energy consumption at 2, 3 and 4 hours after bike exercise compared to immediately after exercise",[2]; oral administration,decreased
same,change of uric acid concentration between immediately after exercise and 4 hours after exercise (decrease),[3]; orotic acid ingested by oral absorption as throat candy,0.05 mg/dL
same,change of uric acid concentration between immediately after exercise and 4 hours after exercise (increase),[3]; orotic acid ingested by oral administration,0.1 mg/dL
same,"SpO2 level at the same apnea time, compared with no orotic acid (placebo throat candy)",[4],higher than that when orotic acid was not ingested
same,respiratory quotient (RER) compared to control group,[5],not a significant difference
same,carbon dioxide production volume (VCO2) compared to control group,[5]; dark period,significantly decreased
same,oxygen consumption (VO2) compared to control group,"[5]; dark period, orotic acid 50 mg/mL suspension 10 mL/kg",significantly decreased
same,carbon dioxide production volume (VCO2) compared to control group,[6],significantly decreased
same,respiratory quotient (RER) compared to control group,[6],not a significant difference
same,oxygen consumption (VO2) compared to control group,[6]; orotic acid 50 mg/mL suspension 10 mL/kg,significantly decreased
same,effect of oral administration on the day of administration or within one week,"[7]; experiments using mice, oral administration, at least three weeks needed for a significant difference",not observed
same,limit swimming time,"[7]; oral 250 mg/kg and 500 mg/kg, five times a week, 3 weeks",prolonged depending on the dose of orotic acid
